{
  "source": "patent US11590116B2",
  "about": "(THERAVANCE BIOPHARMA R&D IP, LLC, priority 2019, dated 2023)",
  "key": {"[1]": {"biological_target": "T1, recombinant human ALK5 (TGF-βR1) protein (Homo sapiens, UniProt P36897)", "T1 construct": "purchased Life Technologies PR9075A", "T1 sequence (P36897 34-503)": "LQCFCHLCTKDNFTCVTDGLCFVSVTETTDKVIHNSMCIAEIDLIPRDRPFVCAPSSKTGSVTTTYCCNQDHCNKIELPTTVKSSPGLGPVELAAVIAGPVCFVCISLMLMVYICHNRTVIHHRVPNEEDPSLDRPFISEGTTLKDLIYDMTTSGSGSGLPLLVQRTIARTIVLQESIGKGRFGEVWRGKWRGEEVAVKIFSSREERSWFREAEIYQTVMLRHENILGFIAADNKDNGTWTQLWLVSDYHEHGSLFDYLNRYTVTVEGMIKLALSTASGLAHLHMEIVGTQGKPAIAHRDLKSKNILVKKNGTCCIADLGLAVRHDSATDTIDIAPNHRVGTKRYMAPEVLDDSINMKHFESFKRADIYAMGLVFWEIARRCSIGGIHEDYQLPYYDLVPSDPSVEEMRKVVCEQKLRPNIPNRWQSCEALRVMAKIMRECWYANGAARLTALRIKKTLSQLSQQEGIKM", "experiment": "Biochemical ALK5 (TGF-βR1) assay to measure pKi (LANCE Ultra ULight kinase assay)", "settings": "apparent pKi from pIC50 by Cheng-Prusoff, read-out: ALK5 pKi (converted)", "procedure,_shortened": "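Compounds (10 μM to 25 pM) preincubated 60 minutes at room temperature with enzyme, then reaction run 60 minutes at 37° C with ATP added as 125 μM (5× final). Stopped with EDTA plus Eu-anti-phospho-Topoisomerase 2-alpha (Thr1342) antibody, TR-FRET read at 665 nm; pIC50 converted to pKi via Cheng-Prusoff.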"}, "[2]": {"tested_on": "TGF-β-stimulated SMAD3 phosphorylation in BEAS-2B cells", "experiment": "Cellular ALK5 potency assay, inhibition of TGF-β stimulated pSMAD3 formation in BEAS-2B cells", "format": "cell-based", "settings": "Homo sapiens; inhibition of TGF-β stimulated pSMAD3 formation, BEAS-2B cells; read-out: BEAS2B pIC50 (converted)", "procedure,_shortened": "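Potency is reported as pIC50, derived from concentration-dependent reduction of pSMAD3 AlphaLISA signal against TGF-β-stimulated cells without compound. BEAS-2B cells received compound for 1 h before a 30-min stimulation with 10 ng/mL TGF-β.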"}},
  "data": [
    {"smiles": "Cc1cccc(-c2[nH]cnc2-c2ccc3ncc(-c4ccc(C(=O)OCC5CNC5)s4)cc3c2)n1", "note": "[Compound 1007, azetidin-3-ylmethyl 5-(6-(5-(6-methylpyridin-2-yl)-1H-imidazol-4-yl)quinolin-3-yl)thiophene-2-carboxylate]", "values": [
      {"measurement": "Ki", "setting": "[1]", "result": "0.0398 to 0.316", "unit": "nM"},
      {"measurement": "IC50", "setting": "[2]", "result": "25.1 to 158", "unit": "nM"}
    ]},
    {"smiles": "Cc1cccc(-c2n[nH]cc2-c2ccc3nccc(C4CO[C@H]5CNC[C@@H]5N4)c3n2)n1", "note": "(mixture of isomers) [Compound 861, rac-(4aS,7aS)-3-[6-[3-(6-methyl-2-pyridyl)-1H-pyrazol-4-yl]-1,5-naphthyridin-4-yl]-2,3,4,4a,5,6,7,7a-octahydropyrrolo[3,4-b][1,4]oxazine]", "values": [
      {"measurement": "Ki", "setting": "[1]", "result": "3.98 to 31.6", "unit": "nM"},
      {"measurement": "IC50", "setting": "[2]", "result": "200 to 1260", "unit": "nM"}
    ]},
    {"smiles": "Cc1cccc(-c2[nH]cnc2-c2ccc3ncc(C4=CCC(NC(C)C)CC4)cc3n2)n1", "note": "(centres unmarked) [Compound 258, N-isopropyl-4-(6-(5-(6-methylpyridin-2-yl)-1H imidazol-4-yl)-1,5-naphthyridin-3-yl)cyclohex-3-en-1-amine]", "values": [
      {"measurement": "Ki", "setting": "[1]", "result": "< 0.0316", "unit": "nM"},
      {"measurement": "IC50", "setting": "[2]", "result": "25.1 to 158", "unit": "nM"}
    ]},
    {"smiles": "COc1n[nH]c(-c2cccc(C)n2)c1-c1ccc2ncc(-c3cccnc3)cc2n1", "note": "[Compound 105, 2-(5-methoxy-3-(6-methylpyridin-2-yl)-1H-pyrazol-4-yl)-7-(pyridin-3-yl)-1,5-naphthyridine]", "values": [
      {"measurement": "Ki", "setting": "[1]", "result": "0.0398 to 0.316", "unit": "nM"},
      {"measurement": "IC50", "setting": "[2]", "result": "25.1 to 158", "unit": "nM"}
    ]},
    {"smiles": "Cc1cccc(-c2[nH]cnc2-c2ccc3ncc(C4=CCN(C(=O)C5CCCNC5)CC4)cc3c2)n1", "note": "(centres unmarked) [Compound 1150, [4-[6-[5-(6-methyl-2-pyridyl)-1H-imidazol-4-yl]-3-quinolyl]-3,6-dihydro-2H-pyridin-1-yl]-(3-piperidyl)methanone]", "values": [
      {"measurement": "Ki", "setting": "[1]", "result": "0.0398 to 0.316", "unit": "nM"},
      {"measurement": "IC50", "setting": "[2]", "result": "25.1 to 158", "unit": "nM"}
    ]},
    {"smiles": "Cc1cccc(-c2nc3ccccn3c2-c2ccc3ncc(-c4cn[nH]c4)cc3n2)n1", "note": "[Compound 469, 2-(2-(6-methylpyridin-2-yl)imidazo[1,2-a]pyridin-3-yl)-7-(1H-pyrazol-4-yl)-1,5-naphthyridine]", "values": [
      {"measurement": "Ki", "setting": "[1]", "result": "0.0398 to 0.316", "unit": "nM"},
      {"measurement": "IC50", "setting": "[2]", "result": "< 20", "unit": "nM"}
    ]},
    {"smiles": "Cc1cccc(-c2n[nH]cc2-c2ccc3ncc(C(=O)NCCCN4CCOCC4)cc3n2)n1", "note": "[Compound 109, 6-[3-(6-methyl-2-pyridyl)-1H-pyrazol-4-yl]-N-(3-morpholinopropyl)-1,5-naphthyridine-3-carboxamide]", "values": [
      {"measurement": "Ki", "setting": "[1]", "result": "0.0398 to 0.316", "unit": "nM"},
      {"measurement": "IC50", "setting": "[2]", "result": "25.1 to 158", "unit": "nM"}
    ]},
    {"smiles": "Cc1cccc(-c2n[nH]cc2-c2ccc3ncc(C4=CCNC4)cc3n2)n1", "note": "[Compound 588, 7-(2,5-dihydro-1H-pyrrol-3-yl)-2-[3-(6-methyl-2-pyridyl)-1H-pyrazol-4-yl]-1,5-naphthyridine]", "values": [
      {"measurement": "Ki", "setting": "[1]", "result": "0.0398 to 0.316", "unit": "nM"},
      {"measurement": "IC50", "setting": "[2]", "result": "< 20", "unit": "nM"}
    ]},
    {"smiles": "Cc1nc(-c2n[nH]cc2-c2ccc3ncc(-c4cnn5c4NCCC5)cc3n2)ccc1F", "note": "[Compound 1, 2-[3-(5-fluoro-6-methyl-2-pyridyl)-1H-pyrazol-4-yl]-7-(4,5,6,7-tetrahydropyrazolo[1,5-a]pyrimidin-3-yl)-1,5-naphthyridine]", "values": [
      {"measurement": "Ki", "setting": "[1]", "result": "< 0.0316", "unit": "nM"},
      {"measurement": "IC50", "setting": "[2]", "result": "25.1 to 158", "unit": "nM"}
    ]},
    {"smiles": "Cc1nc(-c2n[nH]cc2-c2ccc3ncc(N4CCCNCC4)cc3c2)ccc1F", "note": "[Compound 209, 3-(1,4-diazepan-1-yl)-6-[3-(5-fluoro-6-methyl-2-pyridyl)-1H-pyrazol-4-yl]quinoline]", "values": [
      {"measurement": "Ki", "setting": "[1]", "result": "0.0398 to 0.316", "unit": "nM"},
      {"measurement": "IC50", "setting": "[2]", "result": "25.1 to 158", "unit": "nM"}
    ]},
    {"smiles": "Cc1cccc(-c2n[nH]cc2-c2ccc3ncc(-c4cn5c(n4)CN(CCN)CC5)cc3n2)n1", "note": "[Compound 427, 2-[2-[6-[3-(6-methyl-2-pyridyl)-1H-pyrazol-4-yl]-1,5-naphthyridin-3-yl]-6,8-dihydro-5H-imidazo[1,2-a]pyrazin-7-yl]ethanamine]", "values": [
      {"measurement": "Ki", "setting": "[1]", "result": "0.0398 to 0.316", "unit": "nM"},
      {"measurement": "IC50", "setting": "[2]", "result": "200 to 1260", "unit": "nM"}
    ]},
    {"smiles": "Cc1cccc(-c2[nH]cnc2-c2ccc3ncc(NC[C@@H]4CCCN4)cc3c2)n1", "note": "[Compound 679, 6-[5-(6-methyl-2-pyridyl)-1H-imidazol-4-yl]-N-[[(2S)-pyrrolidin-2-yl]methyl]quinolin-3-amine]", "values": [
      {"measurement": "Ki", "setting": "[1]", "result": "0.0398 to 0.316", "unit": "nM"},
      {"measurement": "IC50", "setting": "[2]", "result": "200 to 1260", "unit": "nM"}
    ]},
    {"smiles": "Cc1cccc(-c2n[nH]cc2-c2ccc3ncc(-c4ccccn4)cc3n2)n1", "note": "[Compound 518, 2-[3-(6-methyl-2-pyridyl)-1H-pyrazol-4-yl]-7-(2-pyridyl)-1,5-naphthyridine]", "values": [
      {"measurement": "Ki", "setting": "[1]", "result": "0.0398 to 0.316", "unit": "nM"},
      {"measurement": "IC50", "setting": "[2]", "result": "< 20", "unit": "nM"}
    ]}
  ]
}
